Target: T1, GID4 (Uniprot ID: Q81VV7, residues 124-289) (Homo sapiens, UniProt Q8IVV7)
T1 construct: GID4 (Uniprot ID: Q81VV7, residues 124-289)
T1 sequence (Q8IVV7 124-289): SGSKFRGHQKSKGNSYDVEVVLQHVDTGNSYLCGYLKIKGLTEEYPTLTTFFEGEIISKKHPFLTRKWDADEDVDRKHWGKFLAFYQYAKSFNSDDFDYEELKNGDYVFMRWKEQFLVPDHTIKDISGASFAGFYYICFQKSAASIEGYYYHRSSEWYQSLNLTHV
Test: GID4 competitive binding assay (AlphaScreen, GID4/degron peptide PGLW)
Conditions: 24 nM GID4, 48 nM biotinylated degron peptide PGLW, 4° C., read-out: IC50 (Inhibition of GID4/Degron binding by test compounds)
Summary of the method: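 Displacement of biotin-tagged degron tetrapeptide PGLW (48 nM) from C-terminally 6His-tagged GID4 124-289 (24 nM) read by AlphaScreen proximity signal. Compound incubation 2 h, then beads 1 h, all at 4 °C, pH 7.5, 2% DMSO final; background-corrected inhibition fitted with variable slope for IC50.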

SMILES	IC50 [µM]
CC(C)c1cc(N2CCN(C)C(c3cnc4ccccn34)C2)nc(N)n1 (racemic) [Compound 106, (R/S)-4-(3-(imidazo[1,2-a]pyridin-3-yl)-4-methylpiperazin-1-yl)-6-isopropylpyrimidin-2-amine]	< 0.5
CN(C)CCCNC(=O)c1n[nH]c2ccc(-c3ccc4ncnc(N)c4c3)cc12 [Compound 330, 5-(4-aminoquinazolin-6-yl)-N-(3-(dimethylamino)propyl)-1H-indazole-3-carboxamide]	0.5 to 5
CN1CCN(c2cc(N)nc(NC3CC3)n2)CC1c1ccccc1Br (centres unmarked) [Compound 71, 6-(3-(2-bromophenyl)-4-methylpiperazin-1-yl)-N2-cyclopropylpyrimidine-2,4-diamine]	< 0.5
CNc1cc(N2CCCC(n3ncc4ccccc43)C2)nc(N)n1 (centres unmarked) [Compound 254, 6-(3-(1H-indazol-1-yl)piperidin-1-yl)-N4-methylpyrimidine-2,4-diamine]	> 5
Nc1nc(NC2CC2)nc(N2CCN(CCO)C(c3ccccc3Br)C2)n1 (centres unmarked) [Compound 53, 2-(4-(4-amino-6-(cyclopropylamino)-1,3,5-triazin-2-yl)-2-(2-bromophenyl)piperazin-1-yl)ethan-1-ol]	> 5
Nc1nc(NC2CC2)nc(N2CCN[C@H](c3ccccc3Br)C2)n1 (stereo in doubt) [Compound 64, (R/S)-6-(3-(2-bromophenyl)piperazin-1-yl)-N2-cyclopropyl-1,3,5-triazine-2,4-diamine]	> 5
CC(C)c1cc(N2CCCC(c3ccn[nH]3)C2)nc(N)n1 (centres unmarked) [Compound 210, 4-(3-(1H-pyrazol-5-yl)piperidin-1-yl)-6-isopropylpyrimidin-2-amine]	> 5
CNc1nc(N)cc(N2CCNC(c3ccccc3Br)C2)n1 (racemic) [Compound 114, (S/R)-6-(3-(2-bromophenyl)piperazin-1-yl)-N2-methylpyrimidine-2,4-diamine]	< 0.5

From patent US20240132464A1, “HETEROCYCLIC COMPOUNDS AS E3 LIGASE INHIBITORS” (Accutar Biotechnology Inc., priority 2022, published 2024)
